≈ marks a conversion by molar mass, not a printed value. Calls of active or inactive are those of the source. No cut-off for these calls is given here.
What was measured:
[1] = tested on: MDCK; assay: Cytotoxicity in influenza A/PR/8/34 virus infected MDCK cells after 3 days by MTT assay; format: cell-based, Canis lupus familiaris; conditions: dog, 72 h
[2] = Inhibition of influenza A/Guizhou/54/89(H3N2) virus sialidase after 10 mins by fluorometric assay; set-up: species or system Influenza A virus (A/Guizhou/54/89(H3N2))
[3] = Inhibition of influenza A/PR/8/34(H1N1) virus sialidase after 10 mins by fluorometric assay; set-up: species or system Influenza A virus (A/Puerto Rico/8/1934(H1N1))
[4] = tested on: Influenza A virus; assay: Inhibition of influenza virus A/PR/8/34(H1N1) proliferation on MDCK cells at 12.5 ug/mL; format: functional, organism-based; conditions: A/Puerto Rico/8/1934(H1N1)
[5] = Inhibition of influenza B/Ibaraki/2/85 virus sialidase after 10 mins by fluorometric assay; set-up: species or system Influenza B virus (B/Ibaraki/2/85)
[6] = tested on: Influenza A virus; assay: Antiinfluenza virus activity in mouse infected with influenza virus A/PR/8/34(H1N1) assessed as survival rate at 0.5 mg/kg administered intranasally after 10 days; format: functional, A/Puerto Rico/8/1934(H1N1)
[7] = tested on: Influenza A virus (A/Puerto Rico/8/1934(H1N1)); assay: Antiinfluenza virus activity in mouse infected with influenza virus A/PR/8/34(H1N1) assessed as survival rate at 0.5 mg/kg administered intranasally after 21 days; format: functional, BALB/c

Structure (SMILES): COC(=O)[C@@]1(Oc2cc(O)c3c(=O)cc(-c4ccc(O)cc4)oc3c2-c2cc(-c3cc(=O)c4c(O)cc(OC)cc4o3)ccc2OC)C[C@H](OC(C)=O)[C@@H](NC(C)=O)[C@H]([C@H](OC(C)=O)[C@@H](COC(C)=O)OC(C)=O)O1 (stereo in doubt; 6R)
- Activity [1]: Non-toxic
- IC50 [2]: > 10 µg/mL
- IC50 [3]: 79.2 µg/mL (≈ 76.2 µM)

Structure (SMILES): COc1cc(O)c2c(=O)cc(-c3ccc(OC)c(-c4c(O[C@]5(C(=O)O)C[C@H](O)[C@@H](NC(C)=O)[C@H]([C@H](O)[C@H](O)CO)O5)cc(O)c5c(=O)cc(-c6ccc(O)cc6)oc45)c3)oc2c1 (stereo in doubt; 8S) [listing 1 of 2 here]
- Activity [4]: Active

Structure (SMILES): COc1cc(O)c2c(=O)cc(-c3ccc(OC)c(-c4c(O[C@]5(C(=O)O)C[C@H](O)[C@@H](NC(C)=O)[C@H]([C@H](O)[C@H](O)CO)O5)cc(O)c5c(=O)cc(-c6ccc(O)cc6)oc45)c3)oc2c1 (stereo in doubt; 8R) [listing 1 of 2 here]
- Activity [4]: Active

Structure (SMILES): COC(=O)[C@@]1(Oc2cc(O)c3c(=O)cc(-c4ccc(O)cc4)oc3c2-c2cc(-c3cc(=O)c4c(O)cc(OC)cc4o3)ccc2OC)C[C@H](OC(C)=O)[C@@H](NC(C)=O)[C@H]([C@H](OC(C)=O)[C@@H](COC(C)=O)OC(C)=O)O1 (stereo in doubt; 6S)
- IC50 [2]: 1.1 µg/mL (≈ 1.06 µM)
- IC50 [5]: > 100 µg/mL
- IC50 [3]: > 100 µg/mL

Structure (SMILES): COc1cc(O)c2c(=O)cc(-c3ccc(OC)c(-c4c(O[C@]5(C(=O)O)C[C@H](O)[C@@H](NC(C)=O)[C@H]([C@H](O)[C@H](O)CO)O5)cc(O)c5c(=O)cc(-c6ccc(O)cc6)oc45)c3)oc2c1 (stereo in doubt; 8S) [listing 2 of 2 here]
- Activity [1]: Non-toxic
- Activity [6]: 78%
- IC50 [2]: 0.99 µg/mL (≈ 1.15 µM)
- Activity [7]: 56%
- IC50 [5]: 8.64 µg/mL (≈ 10.1 µM)
- IC50 [3]: 6.35 µg/mL (≈ 7.4 µM)

Structure (SMILES): COc1cc(O)c2c(=O)cc(-c3ccc(OC)c(-c4c(O)cc(O)c5c(=O)cc(-c6ccc(O)cc6)oc45)c3)oc2c1 [GINKGETIN]
- Activity [1]: Toxic
- IC50 [2]: 9.78 µg/mL (≈ 17.3 µM)
- IC50 [5]: > 100 µg/mL
- IC50 [3]: 55 µg/mL (≈ 97.1 µM)

Structure (SMILES): COc1c(O)cc(O)c2c(=O)cc(-c3ccc(O)cc3)oc12 [4'-HYDROXYWOGONIN]
- IC50 [2]: 8.95 µg/mL (≈ 29.8 µM)
- IC50 [5]: 6.58 µg/mL (≈ 21.9 µM)
- IC50 [3]: 9.78 µg/mL (≈ 32.6 µM)

Structure (SMILES): COc1cc(O)c2c(=O)cc(-c3ccc(OC)c(-c4c(O[C@]5(C(=O)O)C[C@H](O)[C@@H](NC(C)=O)[C@H]([C@H](O)[C@H](O)CO)O5)cc(O)c5c(=O)cc(-c6ccc(O[C@]7(C(=O)O)C[C@H](O)[C@@H](NC(C)=O)[C@H]([C@H](O)[C@H](O)CO)O7)cc6)oc45)c3)oc2c1 (stereo in doubt; 9S)
- Activity [1]: Non-toxic
- IC50 [2]: 0.94 µg/mL (≈ 0.818 µM)
- IC50 [5]: 9.34 µg/mL (≈ 8.13 µM)
- IC50 [3]: 6.99 µg/mL (≈ 6.08 µM)

Structure (SMILES): COc1cc(O)c2c(=O)cc(-c3ccc(OC)c(-c4c(O[C@]5(C(=O)O)C[C@H](O)[C@@H](NC(C)=O)[C@H]([C@H](O)[C@H](O)CO)O5)cc(O)c5c(=O)cc(-c6ccc(O[C@]7(C(=O)O)C[C@H](O)[C@@H](NC(C)=O)[C@H]([C@H](O)[C@H](O)CO)O7)cc6)oc45)c3)oc2c1 (stereo in doubt; 9R)
- IC50 [2]: 6.57 µg/mL (≈ 5.72 µM)
- IC50 [5]: 9.05 µg/mL (≈ 7.88 µM)
- IC50 [3]: 6.61 µg/mL (≈ 5.75 µM)

Structure (SMILES): COC(=O)[C@@]1(Oc2ccc(-c3cc(=O)c4c(O)cc(O[C@]5(C(=O)OC)C[C@H](OC(C)=O)[C@@H](NC(C)=O)[C@H]([C@H](OC(C)=O)[C@@H](COC(C)=O)OC(C)=O)O5)c(-c5cc(-c6cc(=O)c7c(O)cc(OC)cc7o6)ccc5OC)c4o3)cc2)C[C@H](OC(C)=O)[C@@H](NC(C)=O)[C@H]([C@H](OC(C)=O)[C@@H](COC(C)=O)OC(C)=O)O1 (stereo in doubt; 7R)
- IC50 [2]: 1.35 µg/mL (≈ 0.892 µM)

Structure (SMILES): COC(=O)[C@@]1(Oc2ccc(-c3cc(=O)c4c(O)cc(O[C@]5(C(=O)OC)C[C@H](OC(C)=O)[C@@H](NC(C)=O)[C@H]([C@H](OC(C)=O)[C@@H](COC(C)=O)OC(C)=O)O5)c(-c5cc(-c6cc(=O)c7c(O)cc(OC)cc7o6)ccc5OC)c4o3)cc2)C[C@H](OC(C)=O)[C@@H](NC(C)=O)[C@H]([C@H](OC(C)=O)[C@@H](COC(C)=O)OC(C)=O)O1 (stereo in doubt; 7S)
- Activity [1]: Non-toxic
- IC50 [2]: > 10 µg/mL
- IC50 [5]: > 100 µg/mL
- IC50 [3]: > 100 µg/mL

Structure (SMILES): COc1cc(O)c2c(=O)cc(-c3ccc(OC)c(-c4c(O[C@]5(C(=O)O)C[C@H](O)[C@@H](NC(C)=O)[C@H]([C@H](O)[C@H](O)CO)O5)cc(O)c5c(=O)cc(-c6ccc(O)cc6)oc45)c3)oc2c1 (stereo in doubt; 8R) [listing 2 of 2 here]
- Activity [6]: 75%
- IC50 [2]: 0.82 µg/mL (≈ 0.956 µM)
- Activity [7]: 62.5%
- IC50 [5]: 9.11 µg/mL (≈ 10.6 µM)
- IC50 [3]: 5.5 µg/mL (≈ 6.41 µM)

Source: ChEMBL document CHEMBL1138422, “Anti-influenza virus activity of biflavonoids” (Bioorg Med Chem Lett, 2007)
